Reference: patent US12048684B2, “Arctigenin liquid nano-preparation and preparation method thereof” (Wuhan Academy of Agricultural Sciences, priority 2022, dated 2024)

Assay: Solubility in pure water at room temperature
Assay type: physicochemical

Structure (SMILES): COc1cc(C[C@H]2C(=O)OC[C@@H]2Cc2ccc(OC)c(OC)c2)ccc1O [arctigenin raw material, arctigenin]
- solubility (water solubility of arctigenin): < 0.05%
